Test results from patent US20070009961A1, “Identification of targeting component of herbal medicines from simplified HPLC spectrum using after flowing through immobilized receptor (AFTIR) method” (Academia Sinica, priority 2005, published 2007).
Read-outs that look alike come from different tables or passages of the source. One block for each molecule: values may come before it.

Key:
[1] = molecular target: T1, CD28-mulg (extracellular domain of human CD28 fused to murine IgG2a Fc), immobilized on CM5 chip (Homo sapiens, UniProt P10747); assay: Surface plasmon resonance (BIAcore) binding to chip immobilised CD28 / AFTIR
T1 construct: soluble fusion protein consisting of the extracellular (134 aa) domain of human CD28; purchased ID Labs Inc; host or cells: CHO transfectants
Source text: Receptors and proteins. Human CD28-mulg and CD80-mulg fusion proteins were purchased from ID Labs Inc. CD28-mulg is a soluble fusion protein consisting of the extracellular (134 aa) domain of human CD28 fused to murine IgG2a Fc (233 aa). CD80-mulg is a soluble fusion protein consisting of the extracellular (173 aa) domain of human CD80 fused to murine IgG2a Fc (232 aa). Both were purified from tissue culture supernatant of CHO transfectants by protein A and size exclusion chromatography. Anti-human CD28 antibody and anti-human CD3 antibody were purchased from BioLegend. In the experiments, the quantity of anti-CD28 and CD80 used is only around 2% the quantity of CD28 immobilized.
Surface plasmon resonance analysis. BIAcore 3000 (Biacore, Uppsala, Sweden) was employed for real-time biospecific interaction analysis. Binding analysis was performed at 25° C. with a flow rate of 10 μl/min. In general, proteins can be immobilized on the layer of carboxylated dextran in CM5 sensor chip (research grade; Biacore) by amine coupling. With each injection, samples were diluted in the running buffer HBS (10 mM HEPES, pH 7.4, 150 mM NaCl, 3.4 mM EDTA, 0.005% surfactant P20) to a final concentration of 15 to 30 μM. After each injection, flow-cell can be regenerated by flowing though the cell with the buffer containing 50 mM NaOH. Extracts were injected at different concentrations from 1.9 μM to 60 μM. The binding constant between immobilized receptor (imm-CD28) and ligand was determined using BIAevaluation 3.1 software (Biacore).
CD28-mulg, a soluble fusion protein consisting of the extracellular (134 aa) domain of human CD28 fused to murine IgG2a Fc (233 aa), was immobilized to dextran matrix on the sensor chip surface, via covalent coupling of primary amines (—NH2). In this report, the term CD28 will be used as shorthand for CD28-mulg. […]
The RU as shown in FIGS. 5b-5d is the actual RU subtracted by the “background RU”. […] Affinity binding constants (1/KD) can be obtained from KD, where KD is calculated from Scatchard plots. […]

[2] = tested on: CD28-independent IL-2 response of Jurkat cells; assay: Jurkat T-cell IL-2 secretion (ELISA), CD28-independent stimulation (PMA plus ionomycin); type: cell-based, human
Description: Stimulation of T-cell. Jurkat leukemic T cells were maintained in a humidified atmosphere of 5% CO2/95% air at 37° C. in RPMI-1640 medium (HyClone, Utah, USA) including penicillin, streptomycin and 10% heat-inactivated FBS. Two modes of activations were used for the present experiments: anti-CD3 plus anti-CD28 (CD28-dependent stimulation) and PMA plus ionomycin (CD28-independent stimulation). For experiment of CD28-dependant stimulation, flat-bottom 96-well plates were coated with 10 μg/ml of anti-CD3 for 24 h at 4° C. Wells anti-CD3 were washed twice with PBS. After washing, the unbounded anti-CD3 was removed. Jurkat T-cells (200 μl 2×10^6 cells/ml) with soluble anti-CD28 (1 μg/ml) were then added into the wells. The cells were activated by anti-CD3 already existing in the wells. Upon the activation, the cell solution was stayed for 24 h. The supernatant (100 μl) of cell solution was then used for the measurement of IL-2 by enzyme-linked immuno-sorbent assay (ELISA). For experiment of CD28-indepentant stimulation, 200 μl Jurkat cell (5×10^5 cell/ml) were incubated with PMA (50 nM)/lonomycin (1 μg/ml) for 24 h. 100 μl supernatant was then used for IL-2 measurement by ELISA. […] IL-2 concentration of T-cell was determined by following the instruction from manufacturer (Biosource; California, US). […] Concentration of IL-2 was then measured with microplate reader. […]

[3] = tested on: CD28 dependent IL-2 expression in Jurkat cells; assay: Jurkat T-cell IL-2 secretion (ELISA), CD28-dependent stimulation (anti-CD3 plus anti-CD28); type: cell-based, human
Description: Stimulation of T-cell. Jurkat leukemic T cells were maintained in a humidified atmosphere of 5% CO2/95% air at 37° C. in RPMI-1640 medium (HyClone, Utah, USA) including penicillin, streptomycin and 10% heat-inactivated FBS. Two modes of activations were used for the present experiments: anti-CD3 plus anti-CD28 (CD28-dependent stimulation) and PMA plus ionomycin (CD28-independent stimulation). For experiment of CD28-dependant stimulation, flat-bottom 96-well plates were coated with 10 μg/ml of anti-CD3 for 24 h at 4° C. Wells anti-CD3 were washed twice with PBS. After washing, the unbounded anti-CD3 was removed. Jurkat T-cells (200 μl 2×10^6 cells/ml) with soluble anti-CD28 (1 μg/ml) were then added into the wells. The cells were activated by anti-CD3 already existing in the wells. Upon the activation, the cell solution was stayed for 24 h. The supernatant (100 μl) of cell solution was then used for the measurement of IL-2 by enzyme-linked immuno-sorbent assay (ELISA). For experiment of CD28-indepentant stimulation, 200 μl Jurkat cell (5×10^5 cell/ml) were incubated with PMA (50 nM)/lonomycin (1 μg/ml) for 24 h. 100 μl supernatant was then used for IL-2 measurement by ELISA. […] The culture supernatants in both modes were harvested after 24h incubation and then used for the measurements of IL-2. IL-2 measurement was done using the commercial available ELISA kit (Biosource; California, US). The details how to measure the concentration of IL-2 after T-cell is activated is shown below. IL-2 ELISA assay. IL-2 concentration of T-cell was determined by following the instruction from manufacturer (Biosource; California, US). A 96-well flat-bottom plate was coated with anti-IL-2 mAb (100 μl at 4 μg/ml) in phosphate-buffered saline (PBS; pH 7.3) at room temperature overnight. The plate was then washed with PBS containing 0.05% Tween 20 (PBS-T) three times. Subsequently, the plate was incubated with a blocking solution containing 1% bovine serum albumin in PBS for more than 1 hr. After washing by PBS-T, 100 μl supernatant mixed with biotinylated anti-IL-2 detection antibodies (50 μl at 12.5 ng/ml) was added into each well and stay for 2 hr. After washing, 100 μl streptavidin horseradish peroxidase (1/2000 dilution of a 1.25 mg/ml solution) was added and the solution was incubated for 30 min at room temperature. After washing, 100 μl substrate solution containing 1/1 mixture of H2O2 and tetramethylbenzidine was added and the solution was incubated for 25min at room temperature. The solution reaction involving the stimulated sample was ceased by the addition of 100 μl stop solution (1M H2SO4). Concentration of IL-2 was then measured with microplate reader. The amount of IL-2 was indicated by the relative percentage ([…] of IL-2 is defined as 100%). […]

[4] = molecular target: T2, CD28-mulg, soluble fusion protein consisting of the extracellular (134 aa) domain of human CD28 fused to … (human; murine, UniProt P10747 19-152); assay: SPR, CD28-mulg on CM5 chip
T2 construct: extracellular domain; Bought from ID Labs Inc; purified from CHO transfectant supernatant; Coupled by primary amines to a CM5 sensor chip in all assays; also called imm-CD28; immobilized CD28; not shown: murine IgG2a Fc (233 aa)

binding efficiency [1]: > 90%
binding capacity ΔR on immobilised CD28 ([1]; SPR, 10 μg/ml ligand): ~120 RU
Molecule: CD80: soluble fusion protein: extracellular (173 aa) domain of human CD80 fused to murine IgG2a Fc

ability to bind CD28 (peak in HPLC profile after AFTIR) ([1]; bound CEE washed off the chip and profiled with HPLC): can bind CD28
Molecule: O=C(/C=C/c1ccc(O)c(O)c1)O[C@@H]1C[C@](O)(C(=O)O)C[C@@H](O)[C@H]1O [C1, chlorogenic acid (5-O-caffeoylquinic acid)]
effect on IL-2 response (in words) [2]: unable to modulate
effect on IL-2 response (in words) [3]: linearly reduces IL-2 response
effect on IL-2 response (in words) ([3]; listed as Chlorogenic acid): downregulates CD28 dependent interleukin-2 (IL-2) expression
effect on IL-2 response (in words) ([3]; listed as chlorogenic acid): downregulating CD28 dependent IL-2 expression
downregulation of IL-2 secretion response ([3]; normalized to 100%): −53%

ratio of binding receptor:ligand (mole:mole) [4]: ~0.92 mole CD80 per mole imm-CD28
B1: CD80-mulg, soluble fusion protein consisting of the extracellular (173 aa) domain of human CD80 fused to murine IgG2a Fc (232 aa) (Fc fusion, UniProt P33681 35-242, looked up)
chain: VIHVTKEVKEVATLSCGHNVSVEELAQTRIYWQKEKKMVLTMMSGDMNIWPEYKNRTIFDITNNLSIVILALRPSDEGTYECVVLKYEKDAFKREHLAEVTLSVKADFPTPSISDFEIPTSNIRRIICSTSGGFPEPHLSWLENGEELNAINTTVSQDPETELYAVSSKLDFNMTTNHSFMCLIKYGHLRVNQTFNWNTTKQEHFPDN
notes: extracellular domain; Bought from ID Labs Inc; purified from CHO transfectant supernatant; Used as the soluble analyte in SPR; also called Human CD80-mulg; not shown: murine IgG2a Fc (232 aa)
